Experimental data published in US20170240522A1, “BENZOTHIOPHENE, BENZYLOXYBENZYLIDENE AND INDOLINE DERIVATIVES USEFUL FOR THE TREATMENT OF TUBERCULOSIS” (priority 2014, published 2017).
Like-named read-outs stand apart in the source and are kept apart here.

Assays:
MprB = target: T1, MprB (Mycobacterium tuberculosis, UniProt P9WGL1); test: MprB autophosphorylation assay; type: biochemical
T1 construct: MprB lacking its N-terminal transmembrane domain was incubated with [γ-32P]ATP; His6; made in house; host or cells: E. coli BL21 (DE3), vector pQE80L
T1 sequence (P9WGL1 185-504 limits assumed): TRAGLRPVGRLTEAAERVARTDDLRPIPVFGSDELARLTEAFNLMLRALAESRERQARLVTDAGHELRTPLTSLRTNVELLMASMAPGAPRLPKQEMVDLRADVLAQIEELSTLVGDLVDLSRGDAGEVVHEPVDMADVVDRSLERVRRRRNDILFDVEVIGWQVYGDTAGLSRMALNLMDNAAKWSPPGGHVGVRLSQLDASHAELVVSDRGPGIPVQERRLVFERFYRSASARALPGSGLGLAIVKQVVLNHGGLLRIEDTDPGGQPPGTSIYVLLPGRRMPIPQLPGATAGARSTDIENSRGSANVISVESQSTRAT

THP-1 macrophages = test: Survival of Mtb-infected activated THP-1 macrophages; type: cell-based, human; conditions: activated THP-1, higher MOI, 10 μM
[1] = test system: Mtb-infected THP-1 macrophages; type: cell-based, human
Mtb-Erdman = test: Growth of Mtb in 7H9 broth; type: cell-based, Mycobacterium tuberculosis; conditions: 25 μM
[2] = test system: several other mycobacteria and non-mycobacterial pathogens; test: REMA assay of non-Mtb strains; type: cell-based
[3] = test system: Mtb-GFP inside activated THP-1 cells; type: cell-based, Mycobacterium tuberculosis; conditions: activated THP-1, 10 μM
Mtb transcriptome = test: RNA-seq and qRT-PCR of compound-treated Mtb; type: cell-based, Mycobacterium tuberculosis
Experimental: For the transcriptomic studies, bacteria were grown under the same conditions as for protein secretion assays. Drug exposure time was 8 hours with 5 μM of compound for RNA-seq experiments and confirmatory qRT-PCR. RNA was extracted with Trizol (Invitrogen) and treated with DNase I (Roche) prior to library preparation or generation of the cDNA template. cDNA was synthesized using the RevertAid First Strand cDNA Synthesis Kit (Fermentas) using random hexamer primer. cDNA corresponding to 10 ng of input RNA was used in each RT-PCR reaction supplemented with specific primer pairs (200 nM each) listed in Table S4 and SYBR-Green master mix (Applied Biosystems). Quantitative RT-PCR reactions were performed with the 7900HT Fast Real-Time PCR System (Applied Biosystems) with the following parameters: 50° C. for 2 min, 95° C. for 10 min, followed by 40 cycles of 95° C. for 15 s and 60° C. for 60 s. Melt curve analysis was used to confirm specific amplification for each primer pair. Unpaired Student's T-tests were used for statistical analyses.
For the RNA-seq library preparation 100 ng of total RNA were used in the TruSeq Stranded mRNA LT kit, according to the instructions provided by the manufacturer (Illumina). A small aliquot was analyzed on Qubit and Fragment Analyzer prior to sequencing on Illumina HiSeq using the TruSeq SR Cluster Generation Kit v3 and TruSeq SBS Kit v3. Data were processed with the Illumina Pipeline Software v1.82. RNA-seq data were deposited in the Gene Expression Omnibus (GEO) server at the National Center for Biotechnology Information (NCBI).
• All analyses in this study were carried out using the M. tuberculosis H37Rv annotation from the TubercuList database (http://tuberculist.epfl.ch/) (Lew et al., 2011). There are 4019 protein coding sequences (CDS) currently annotated in the genome, 73 genes encoding for stable RNAs, small RNAs and tRNAs. In order to quantify protein occupancy and transcription across the entire genome, 3080 intergenic regions (regions flanked by two non-overlapping CDS) were included, resulting in a total of 7172 features. • The single-ended sequence reads generated from RNA-seq experiments were aligned to the M. tuberculosis H37Rv genome (NCBI accession NC_000962.2) using Bowtie2 with default parameters (Langmead and Salzberg, 2012). Read counts for all annotated features were obtained with the htseq-count program (http://www.huber.embl.de/users/anders/HTSeq/doc/count.html). Regions where genes overlapped were excluded from counting. Reads spanning more than one feature were counted for each feature. Since the RNA library was strand-specific, the orientation of sequence reads had to correspond to the orientation of annotated features to be counted. Analysis of differential gene expression was carried out using the DESeq package (Anders and Huber, 2010).

[4] = test system: mycobacterial outer membrane permeability; test: Ethidium bromide (EtBr) uptake assay; type: cell-based, Mycobacterium tuberculosis; conditions: 10 μM
Experimental: (§1) Bacteria were grown for 24 hours in the presence of test compounds. The BacTiter-Glo microbial cell viability reagent (Promega) was used for the quantification of ATP according to the recommendations of the manufacturer. For EtBr uptake assays, bacteria were washed with PBS containing 0.05% Tween 80, OD600 was adjusted to 0.4 and 100 μl were pipetted into black 96 well plates. EtBr was added (4 μM final concentration) and fluorescence was read every 2 min. at 545/600 nm. Unpaired Student's T-tests were used for statistical analyses.
To investigate whether BBH7 alters mycobacterial outer membrane permeability, which might explain the transcriptomic pattern associated with metal-ion toxicity, the Applicant performed ethidium bromide (EtBr) uptake assays after treatment with the compounds of interest. These assays identify altered outer membrane permeability by an increase of fluorescence after binding of EtBr to bacterial nucleic acids. […] This was not observed with BTP15.

MRC-5 lung fibroblasts = test: Fibroblast survival assay (FSA); type: cell-based; conditions: Homo sapiens, MRC5; read-out: IC50 of protection of fibroblasts
Ag85 complex proteins = type: cell-based, Mycobacterium tuberculosis
ESX-1 = ESX-1 inhibitory activity of inhibitors of mycobacterium virulence (Table VII); type: cell-based, Mycobacterium tuberculosis
ATP-levels of Mtb = test: Quantification of intracellular ATP levels; type: cell-based, Mycobacterium tuberculosis; conditions: 10 μM, 24 hours
Experimental: as §1

EsxA = type: cell-based, Mycobacterium tuberculosis
[5] = test system: Mtb expressing GFP in infected fibroblasts; type: cell-based, Mycobacterium tuberculosis; conditions: compound concentration 5 μM (FIG. 2D)

Experimental for GroEL: In brief, 30 ml of bacteria grown to mid-logarithmic phase (OD600 of 0.6 to 0.7) in Sauton's medium supplemented with 0.05% Tween 80 were centrifuged and resuspended in Sauton's medium without Tween. Compounds were added at concentrations as indicated and cells were grown further at 37° C. with shaking for 4 days. Cultures were harvested by centrifugation to obtain culture filtrates and cell pellets. Culture filtrates were concentrated 100-fold in 5-kDa cutoff Vivaspin columns (Sartorius). Cell lysates were prepared by bead beating bacterial pellets in lysis buffer with 100-μm glass beads.
For immunoblot analysis, 5 μg of protein were resolved by SDS-gel electrophoresis and transferred to nitrocellulose membranes. Membranes were blocked with TBS-buffer (3% milk powder) and incubated overnight with the desired primary antibody diluted in TNT-buffer supplemented with 1% BSA fraction V. Membranes were washed with TNT, incubated with the appropriate secondary antibody in TNT-BSA, washed again with TNT, and developed. GroEL2 was used as a lysis control for culture filtrates and as a loading control for cell lysates.

## Nc1ncnc2c1ncn2[C@@H]1O[C@H](COP(=O)(O)OP(=O)(O)NP(=O)(O)O)[C@@H](O)[C@H]1O [AMP-PNP]
MprB; 1 mM
  MprB auto-phosphorylation: no effect
MprB; 10 mM
  phosphohistidine signal of MprB: only incomplete reduction

## NC(=O)c1c(NC(=O)C2CC2)sc2cc(O)c(Br)cc12 [BTP15, 5 -Bromo-2-(cyclopropanecarbonyl-amino)-6-hydroxy-benzo[b]thiophene-3-carboxylic acid amide]
THP-1 macrophages
  protection of THP-1 cells from Mtb-induced cell death: protected THP-1 cells from Mtb-induced cell death
[1]
  rate of bacteria in acidic compartments (Lysotracker Red co-localization): significantly higher rate
Mtb-Erdman
  growth inhibition of Mtb: no growth inhibition
MprB
  MprB auto-phosphorylation: dose-dependent inhibition
[2]
  MIC99: > 100 µM
[3]
  intracellular bacterial load: greatly reduced the intracellular bacterial load
Mtb transcriptome; RNA-seq, 5 μM
  significantly downregulated genes (number): 18 genes
Mtb transcriptome; RNA-seq, 5 μM, 8 hours
  differentially regulated genes (number): 35 genes
Mtb transcriptome; qRT-PCR
  differential regulation (upregulation) of espA: > 2 fold
  downregulation of DosR/MprAB associated genes: > 1.5 fold
Mtb transcriptome; qRT-PCR, after 24 and 48 hours of drug treatment
  mprA expression: significantly down-regulated
[4]
  EtBr accumulation and fluorescence: not observed
MRC-5 lung fibroblasts
  IC50: 1200 nM
Ag85 complex proteins; 20 μM
  Ag85 secretion: reduced Ag85 secretion
Ag85 complex proteins; concentrations ≦10 μM
  Ag85 secretion: only slightly affected at best
ESX-1
  Activity: 92%
ATP-levels of Mtb
  mycobacterial ATP levels: no impact
GroEL; BBH7 and BTP15 treatment
  GroEL in the culture filtrate (cell lysis): not observed
EsxA
  EsxA secretion: dose-dependent secretion inhibition
EsxA; 20 μM
  EsxA secretion: blocked EsxA secretion fully
[5]
  GFP fluorescence of Mtb in infected fibroblasts: comparable to the untreated control

## CSC(=S)N/N=C(\C)c1ccc(OCc2cccc(Cl)c2)cc1 [D22646]
ESX-1
  Activity: 76%

## CSC(=S)N/N=C(\C)c1ccc(OCc2ccc([N+](=O)[O-])cc2)cc1 [D22647]
ESX-1
  Activity: 30%

## COc1ccc([N+](=O)[O-])cc1COc1ccc(/C(C)=N/NC(=S)SC)cc1 [D22648]
ESX-1
  Activity: 65%

## CSC(=S)N/N=C(\C)c1ccc(OCc2cccc([N+](=O)[O-])c2)cc1 [D22663]
ESX-1
  Activity: 47%

## CSC(=S)N/N=C(\C)c1ccc(OCc2cccc(Br)c2)cc1 [D22670]
ESX-1
  Activity: 67%

## CSC(=S)N/N=C(\C)c1ccc(OCc2ccc(Br)cc2)cc1 [D22671]
ESX-1
  Activity: 51%

## CSC(=S)N/N=C(\C)c1ccc(OCc2cccc(F)c2)cc1 [D22672]
ESX-1
  Activity: 94%

## C/C(=N\NC(=S)Nc1ccc(F)c(Cl)c1)c1ccc(OCc2ccccc2)cc1 [D23251]
ESX-1
  Activity: 34%

## C/C(=N\NC(=S)Nc1cccc(Cl)c1Cl)c1ccc(OCc2ccccc2)cc1 [D23579]
ESX-1
  Activity: 75%

## CSc1ccc(NC(=O)Nc2sc3cc(O)ccc3c2C(N)=O)cc1 [D38979]
ESX-1
  Activity: 60%

## CC(C)c1ccc(NC(=O)Nc2sc3cc(O)ccc3c2C(N)=O)cc1 [D39317]
ESX-1
  Activity: 33%

## NC(=O)c1c(NC(=O)Nc2cccc(C(F)(F)F)c2)sc2cc(O)ccc12 [D39321]
ESX-1
  Activity: 45%

## NC(=O)c1c(NC(=O)Nc2cccc(Cl)c2)sc2cc(O)ccc12 [D39322]
ESX-1
  Activity: 40%

## COc1ccc(CNCC(O)COc2ccc3c(C(N)=O)c(NC(=O)C4CC4)sc3c2)cc1 (stereo not drawn) [D45756]
ESX-1
  Activity: 32%

## NC(=O)c1c(NC(=O)Nc2ccc(F)c(Cl)c2)sc2c(Cl)c(O)c(Cl)cc12 [D49399]
ESX-1
  Activity: 33%

## CC(=O)Oc1c(Cl)cc2c(C(N)=O)c(NC(=O)Nc3ccc(C(C)C)cc3)sc2c1Cl [D51275]
ESX-1
  Activity: 41%

## COC(=O)c1cccc(NC(=O)Nc2sc3c(Cl)c(OC(C)=O)c(Cl)cc3c2C(N)=O)c1 [D58298]
ESX-1
  Activity: 33%

## CC(=O)Oc1c(Cl)cc2c(C(N)=O)c(NC(=O)Nc3cccc(CN(C)C)c3)sc2c1Cl [D58845]
ESX-1
  Activity: 87%

## CNC(=O)Nc1sc2c(Cl)c(O)c(Cl)cc2c1C(N)=O [D60166]
ESX-1
  Activity: 55%

## CNC(=O)Nc1sc2c(C(C)C)cc(N)cc2c1C(N)=O [D63134]
ESX-1
  Activity: 26%

## NC(=O)Nc1sc2cc(O)c(Br)cc2c1C(N)=O [D70865]
ESX-1
  Activity: 77%

## CC(=O)Oc1cc2sc(NC(=O)C3CC3)c(C(N)=O)c2cc1Br [D70866]
ESX-1
  Activity: 80%

## CC(=O)Oc1cc2sc(NC(N)=O)c(C(N)=O)c2cc1Br [D71014]
ESX-1
  Activity: 90%

## NNC(=O)c1ccncc1 [Isoniazid, reference compound]
GroEL; 5× MIC
  GroEL in the culture filtrate (cell lysis): cell lysis
EsxA; 0.5× MIC
  EsxA secretion: no effect

## [Cu] [copper]
EsxA; elevated concentrations of copper
  EsxA secretion: no effect

## CC[C@@H](CO)NCCN[C@@H](CC)CO [ethambutol, reference compound]
GroEL; 5× MIC
  GroEL in the culture filtrate (cell lysis): cell lysis
EsxA; 0.5× MIC
  EsxA secretion: no effect

## CCc1cc(C(N)=S)ccn1 [ethionamide, reference compound]
GroEL; 5× MIC
  GroEL in the culture filtrate (cell lysis): cell lysis
EsxA
  EsxA secretion: no effect

## CC(=O)Nc1ccc(/C=N/NC(N)=S)cc1 [thiacetazone, reference compound]
GroEL; 5× MIC
  GroEL in the culture filtrate (cell lysis): cell lysis
EsxA; 0.5× MIC
  EsxA secretion: no effect

## O=S(=O)([O-])[O-].[Zn+2] [zinc, ZnSO4]
Ag85 complex proteins; media containing elevated levels of ZnSO4
  Ag85 secretion: remained unchanged
EsxA; 500 μM zinc
  secretion of EsxA: sixfold increase
